Experimental data reported in article PMC12587545, “Noncytotoxic polymyxin derivatives enhance antibiotic action against multidrug-resistant Gram-negative bacteria” (Antimicrobial Agents and Chemotherapy, 2025).
Values joined by “and” are separate entries in the source; they are usually repeats but may differ in a detail not shown here. Equal values may be shown once.

Legend:
E. cloacae = assay: Checkerboard assay (antibiotic potentiation); format: cell-based, Enterobacter cloacae; conditions: E. cloacae 121887 (colistin-resistant)
Experimental: (§1) The interaction between the compounds and the antibiotics was evaluated using the fractional inhibitory concentration (FIC) index. FIC indices of ≤0.5 is synergistic, 0.5 < × ≤ 4 is additive, whereas >4 is antagonistic ([34]). […] .
(§2) The bacterial isolates were acquired from ATCC or the Canadian Ward Surveillance (CANWARD) study ([56]). CANWARD isolates were collected from infected patients admitted to participating medical centers across Canada.
(§3) The antibiotic and compounds were serially diluted 2-fold in CAMHB along the x- and y-axis, respectively, on a 96-well plate that was subsequently incubated with equal volumes of bacterial inoculum overnight at 37°C. Wells containing only media were used as negative controls, and wells containing only bacteria were used as positive controls. Synergy was measured by the FIC index, which is the summation of the individual FICs of the antibiotic and the compound. The FIC is calculated by dividing the MIC of one agent in the presence of another by the MIC of the agent alone. Turbidity was confirmed with a Molecular Devices (United States) EMax Plus microplate reader at a wavelength of 590 nm. The FBS studies were conducted by following a previously published protocol ([29], [50]). The FBS was inactivated by heating at 56°C for 30 min with constant swirling.

A. baumannii = assay: Checkerboard assay (antibiotic potentiation); format: cell-based, Acinetobacter baumannii; conditions: for MICantibiotic: antibiotic alone
Experimental: as §1, §2, §3

E. coli = assay: Checkerboard assay (antibiotic potentiation); format: cell-based, Escherichia coli; conditions: for Interpretation: antibiotic + compound 1; for MICantibiotic + compound: antibiotic MIC with 8 µg/mL (5 µM) compound 1; for MICantibiotic: antibiotic alone; for Potentiation: of antibiotic by 8 µg/mL (5 µM) compound 1
Experimental: (§4) The interaction between the compounds and the antibiotics was evaluated using the fractional inhibitory concentration (FIC) index. FIC indices of ≤0.5 is synergistic, 0.5 < × ≤ 4 is additive, whereas >4 is antagonistic ([34]).
(§5) Synergy was measured by the FIC index, which is the summation of the individual FICs of the antibiotic and the compound. The FIC is calculated by dividing the MIC of one agent in the presence of another by the MIC of the agent alone. […] The FBS studies were conducted by following a previously published protocol ([29], [50]). The FBS was inactivated by heating at 56°C for 30 min with constant swirling.

P. aeruginosa = assay: Checkerboard assay (antibiotic potentiation); format: cell-based, Pseudomonas aeruginosa; conditions: for MICantibiotic: antibiotic alone
Experimental: as §4, §5

[1] = test system: MDR Gram-negative bacteria clinical isolates; assay: Checkerboard assay, summary over strains; format: cell-based; conditions: of all 14 clinical isolates; number (%)
Experimental: as §4, §3

K. pneumoniae = assay: Checkerboard assay (antibiotic potentiation); format: cell-based, Klebsiella pneumoniae; conditions: for Interpretation: antibiotic + compound 1; for MICantibiotic: antibiotic alone; for Potentiation: of antibiotic by 8 µg/mL (5 µM) compound 1
Experimental: as §4, §5

[2] = E. coli 94393 (colistin-resistant)
[3] = E. coli 94474 (colistin-resistant)
[4] = K. pneumoniae 113250 (colistin-resistant)

With `CC(C)(O/N=C(\C(=O)N[C@@H]1C(=O)N2C(C(=O)[O-])=C(C[n+]3ccccc3)CS[C@H]12)c1csc(N)n1)C(=O)O` [Ceftazidime] the Interpretation (E. cloacae; antibiotic + compound 1) was “Additive (0.5 < × ≤ 4 is additive)”, the “MICantibiotic + compound” value (E. cloacae; antibiotic MIC with 8 µg/mL (5 µM) compound 1) was 0.25 µg/mL and the MICantibiotic (E. cloacae; antibiotic alone) was 0.25 µg/mL. The Potentiation (E. cloacae; of antibiotic by 8 µg/mL (5 µM) compound 1) was 1 fold, the Interpretation (A. baumannii; A. baumannii 92247 (colistin-resistant), antibiotic + compound 1) was “Additive (0.5 < × ≤ 4 is additive)” and the “MICantibiotic + compound” value (A. baumannii; A. baumannii 92247 (colistin-resistant), antibiotic MIC with 4 µg/mL (2 µM) compound 1) was 4 µg/mL. The MICantibiotic (A. baumannii; A. baumannii 92247 (colistin-resistant)) was 8 µg/mL, the Potentiation (A. baumannii; A. baumannii 92247 (colistin-resistant), of antibiotic by 4 µg/mL (2 µM) compound 1) was 2 fold and the Interpretation (A. baumannii; A. baumannii 110193, antibiotic + compound 1) was “Synergy (FIC indices of ≤0.5 is synergistic)”. For the same compound, the “MICantibiotic + compound” value (A. baumannii; A. baumannii 110193, antibiotic MIC with 4 µg/mL (2 µM) compound 1) was 64 µg/mL, the MICantibiotic (A. baumannii; A. baumannii 110193) was 256 µg/mL and the Potentiation (A. baumannii; A. baumannii 110193, of antibiotic by 4 µg/mL (2 µM) compound 1) was 4 fold. For the same compound, the Interpretation (A. baumannii; A. baumannii AB027, antibiotic + compound 1) was “Additive (0.5 < × ≤ 4 is additive)”, the “MICantibiotic + compound” value (A. baumannii; A. baumannii AB027, antibiotic MIC with 4 µg/mL (2 µM) compound 1) was 1024 µg/mL and the MICantibiotic (A. baumannii; A. baumannii AB027) was 2048 µg/mL. For the same compound, the Potentiation (A. baumannii; A. baumannii AB027, of antibiotic by 4 µg/mL (2 µM) compound 1) was 2 fold, the “MICantibiotic + compound” value (A. baumannii; A. baumannii AB031, antibiotic MIC with 4 µg/mL (2 µM) compound 1) was greater than 64 µg/mL and the MICantibiotic (A. baumannii; A. baumannii AB031) was greater than 64 µg/mL. For the same compound, the Interpretation (A. baumannii; A. baumannii ATCC 17978, antibiotic + compound 1) was “Synergy (FIC indices of ≤0.5 is synergistic)”, the Interpretation (A. baumannii; A. baumannii ATCC 17978, antibiotic + compound 3) was “Additive (0.5 < × ≤ 4 is additive)” and the “MICantibiotic + compound” value (A. baumannii; A. baumannii ATCC 17978, antibiotic MIC with 8 µg/mL (5 µM) compound 3) was 4 µg/mL. For the same compound, the “MICantibiotic + compound” value (A. baumannii; A. baumannii ATCC 17978, antibiotic MIC with ¼ MIC (≤5 µM) of compound 1) was 1 µg/mL, the Potentiation (A. baumannii; A. baumannii ATCC 17978, of antibiotic by 8 µg/mL (5 µM) compound 3) was 1 fold and the Potentiation (A. baumannii; A. baumannii ATCC 17978, of antibiotic by ¼ MIC (≤5 µM) of compound 1) was 16 fold. The Interpretation (E. coli; [2]) was “Additive (0.5 < × ≤ 4 is additive)”, the “MICantibiotic + compound” value (E. coli; [2]) was 0.5 µg/mL and the MICantibiotic (E. coli; [2]) was 0.5 µg/mL. The Potentiation (E. coli; [2]) was 1 fold, the Interpretation (E. coli; [3]) was “Additive (0.5 < × ≤ 4 is additive)” and the “MICantibiotic + compound” value (E. coli; [3]) was 0.25 µg/mL. The MICantibiotic (E. coli; [3]) was 0.5 µg/mL, the Potentiation (E. coli; [3]) was 2 fold and the Interpretation (P. aeruginosa; P. aeruginosa 259-96916, antibiotic + compound 1) was “Synergy (FIC indices of ≤0.5 is synergistic)”. For the same compound, the “MICantibiotic + compound” value (P. aeruginosa; P. aeruginosa 259-96916, antibiotic MIC with 8 µg/mL (5 µM) compound 1) was 16 µg/mL, the MICantibiotic (P. aeruginosa; P. aeruginosa 259-96916) was 512 µg/mL and the Potentiation (P. aeruginosa; P. aeruginosa 259-96916, of antibiotic by 8 µg/mL (5 µM) compound 1) was 32 fold. For the same compound, the Interpretation (P. aeruginosa; P. aeruginosa 262-101856, antibiotic + compound 1) was “Synergy (FIC indices of ≤0.5 is synergistic)”, the “MICantibiotic + compound” value (P. aeruginosa; P. aeruginosa 262-101856, antibiotic MIC with 8 µg/mL (5 µM) compound 1) was 4 µg/mL and the MICantibiotic (P. aeruginosa; P. aeruginosa 262-101856) was 16 µg/mL. The Potentiation (P. aeruginosa; P. aeruginosa 262-101856, of antibiotic by 8 µg/mL (5 µM) compound 1) was 4 fold, the Interpretation (P. aeruginosa; P. aeruginosa 264-105354, antibiotic + compound 1) was “Synergy (FIC indices of ≤0.5 is synergistic)” and the “MICantibiotic + compound” value (P. aeruginosa; P. aeruginosa 264-105354, antibiotic MIC with 8 µg/mL (5 µM) compound 1) was 16 µg/mL. For the same compound, the MICantibiotic (P. aeruginosa; P. aeruginosa 264-105354) was 128 µg/mL, the Potentiation (P. aeruginosa; P. aeruginosa 264-105354, of antibiotic by 8 µg/mL (5 µM) compound 1) was 8 fold and the Interpretation (P. aeruginosa; P. aeruginosa 101243 (colistin-resistant), antibiotic + compound 1) was “Additive (0.5 < × ≤ 4 is additive)”. The “MICantibiotic + compound” value (P. aeruginosa; P. aeruginosa 101243 (colistin-resistant), antibiotic MIC with 8 µg/mL (5 µM) compound 1) was 256 µg/mL, the MICantibiotic (P. aeruginosa; P. aeruginosa 101243 (colistin-resistant)) was 512 µg/mL and the Potentiation (P. aeruginosa; P. aeruginosa 101243 (colistin-resistant), of antibiotic by 8 µg/mL (5 µM) compound 1) was 2 fold. The Interpretation (P. aeruginosa; P. aeruginosa 114228 (colistin-resistant), antibiotic + compound 1) was “Additive (0.5 < × ≤ 4 is additive)”, the “MICantibiotic + compound” value (P. aeruginosa; P. aeruginosa 114228 (colistin-resistant), antibiotic MIC with 8 µg/mL (5 µM) compound 1) was 8 µg/mL and the MICantibiotic (P. aeruginosa; P. aeruginosa 114228 (colistin-resistant)) was 8 µg/mL. For the same compound, the Potentiation (P. aeruginosa; P. aeruginosa 114228 (colistin-resistant), of antibiotic by 8 µg/mL (5 µM) compound 1) was 1 fold, the Interpretation (P. aeruginosa; P. aeruginosa PAO1, antibiotic + compound 1) was “Synergy (FIC indices of ≤0.5 is synergistic)” and the Interpretation (P. aeruginosa; P. aeruginosa PAO1, antibiotic + compound 3) was “Additive (0.5 < × ≤ 4 is additive)”. The “MICantibiotic + compound” value (P. aeruginosa; P. aeruginosa PAO1, antibiotic MIC with 8 µg/mL (5 µM) compound 1) was 0.5 µg/mL, the “MICantibiotic + compound” value (P. aeruginosa; P. aeruginosa PAO1, antibiotic MIC with 8 µg/mL (5 µM) compound 3) was 4 µg/mL and the MICantibiotic (P. aeruginosa; P. aeruginosa PAO1) was 4 µg/mL and 2 µg/mL. For the same compound, the Potentiation (P. aeruginosa; P. aeruginosa PAO1, of antibiotic by 8 µg/mL (5 µM) compound 1) was 4 fold, the Potentiation (P. aeruginosa; P. aeruginosa PAO1, of antibiotic by 8 µg/mL (5 µM) compound 3) was 1 fold and the “clinical isolates in which the antibiotic was synergized by compound 1” value [1] was 5 (36%) strains. The Interpretation (K. pneumoniae; [4]) was “Additive (0.5 < × ≤ 4 is additive)”, the “MICantibiotic + compound” value (K. pneumoniae; K. pneumoniae 113250 (colistin-resistant), antibiotic MIC with 8 µg/mL (5 µM) compound 1) was 0.5 µg/mL and the MICantibiotic (K. pneumoniae; [4]) was 0.5 µg/mL. For the same compound, the Potentiation (K. pneumoniae; [4]) was 1 fold, the Interpretation (K. pneumoniae; K. pneumoniae 116381) was “Synergy (FIC indices of ≤0.5 is synergistic)” and the MICantibiotic (K. pneumoniae; K. pneumoniae 116381) was 8 µg/mL. For the same compound, the Potentiation (K. pneumoniae; K. pneumoniae 116381) was 64 fold.
